The values below come from patent US20150150892A1, “METHODS AND PRODUCTS RELATED TO LUNG CANCER” (Massachusetts Institute of Technology, priority 2012, published 2015).

Each structure is given as a SMILES string.

For experiment [1], the system named is KrasLSL-G12D/wt (K) lung tumors. Briefly: MicroCT lung tumor volume in K mice. The experiment is classed as in vivo, mouse. As to conditions: single 1 mg/kg dose, 20 weeks post infection. An excerpt: FIG. 3: Bortezomib induces acute lung tumor regression in KrasLSL-G12D/wt;p53flox/flox (KP) mice, but not in KrasLSL-G12D/wt (K) mice. (3A and 3C) representative microCT images (n=6) of KP (3A) and K (3C) lung tumors prior to pre-treatment (D0) and 4 days (D4) after a single dose of vehicle control or bortezomib. (3 B and 3D) Quantification of tumor volume change (D4 compared with D0) in control- and bortezomib-treated mice. Each bar represents an individual tumor. P<10^−6 in KP mice (3B); P>0.05 in K mice (3D).
The Massachusetts Institute of Technology (Cambridge, Mass.) Institutional Animal Care and Use Committee approved all animal studies and procedures. To initiate lung tumors, cohorts of K or KP mice of 129svJae background were infected with 2.5×10^7 plaque-forming units of Adeno-Cre (University of Iowa) by intranasal inhalation, as described previously (2, 28). Mice were given bortezomib (LC Labs) in PBS [0.5% dimethylsulfoxide (DMSO)] at 1 mg/kg body weight i.v., as indicated. […]
At indicated time points, mice were scanned for 15 min under isoflurane anesthesia, using a small animal eXplore Locus microCT (GE Healthcare) at 45-μm resolution, 80 kV, with 450-mA current (47). […] Mice were imaged for 60 seconds, and signals in the lung were quantified using Xenogen software. […]

For a further experiment, the system named is KP and KP^M cells. Briefly: Trypan blue quantification of cell death. The experiment is classed as cell-based, mouse. The settings on record: 24 hours, indicated concentrations. How it is done: FIG. 1. Bortezomib inhibits NF-κB signaling and induces apoptosis in murine lung adenocarcinoma cell lines. (1A) reduction of nuclear p65 level by bortezomib. Two KP (KrasLSL-G12D/wt;p53flox/flox) cell lines (KP1 and KP2) were treated with 5 nM bortezomib (BZ) or vehicle control (ctrl) for 24 hours. Nuclear (N) and cytoplasmic (C) fractions of protein lysates were immunoblotted with the indicated antibodies. NEMO and Parp serve as cytoplasmic and nuclear loading controls, respectively. (1B) quantitative PCR analysis of a subset of NF-κB target genes in 5 nM bortezomib (BZ)-treated KP cells at the indicated time points. Vehicle control is set to 1. (1C) apoptosis in KP and KP^M (KrasLSL-G12D/wt;p53R127H/−) cells induced by bortezomib. Cells were pre-treated with 5 nM bortezomib for 24 hours, and protein lysates were immunoblotted with CC3 and tubulin antibodies. (1D) quantification of cell death in bortezomib-treated cells. Cells were treated with the indicated concentrations of bortezomib for 24 hours, and dead cells were quantified by Trypan blue staining. Error bars are SD (n=3).
As the NF-κB pathway is known to inhibit apoptosis through its regulation of antiapoptotic genes, we next addressed the cytotoxicity of bortezomib in vitro (6).

As to `CC(C)C[C@H](NC(=O)[C@H](Cc1ccccc1)NC(=O)c1cnccn1)B(O)O` [bortezomib, N-(2-pyrazine) carbonyl-L-phenylalanine-L-leucine boronic acid], in experiment [1], the tumor regression result was “did not regress”. Besides, in the experiment with KP and KP^M cells, the “cell death by Trypan blue counting” value was “caused cell death in a dose-dependent manner”.
